Experimental data taken from ChEMBL document CHEMBL1201862, “PubChem BioAssay data set” (2004).
Values joined by “and” are separate entries in the source; they are usually repeats but may differ in a detail not shown here. Equal values may be shown once.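 1) Cells in 96-well plates. 2) Compound, 48 h, 5 concentrations. 3) Linear interpolation between surrounding doses. 4) Unreached endpoint = highest concentration. GI50 marks 50% less growth.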 Active and inactive are the calls of the source. Rule as the data show it: active = GI50 up to about 1.1 µM and inactive = higher.

Legend:
Test in all cases: growth of human tumour cells (NCI), 48 h
SW-620 = system: SW-620
KM12 = system: KM12
HOP-92 = system: HOP-92
HOP-62 = system: HOP-62
RXF 393 = system: RXF 393
CCRF-CEM = system: CCRF-CEM
NCI-H23 = system: NCI-H23
SK-MEL-28 = system: SK-MEL-28
NCI-H460 = system: NCI-H460
U-251 = system: U-251
CAKI-1 = system: CAKI-1
HCT-116 = system: HCT-116
786-0 = system: 786-0
HCT-15 = system: HCT-15
OVCAR-5 = system: OVCAR-5
DU-145 = system: DU-145
BT-549 = system: BT-549
NCI-H522 = system: NCI-H522
ACHN = system: ACHN
SN12C = system: SN12C
SR = system: SR
MDA-N = system: MDA-N
SF-268 = system: SF-268
UO-31 = system: UO-31
SNB-19 = system: SNB-19
Hs-578T = system: Hs-578T
OVCAR-4 = system: OVCAR-4
A549 = system: A549
PC-3 = system: PC-3
MOLT-4 = system: MOLT-4
RPMI-8226 = system: RPMI-8226
HT-29 = system: HT-29
A498 = system: A498
M14 = system: M14
LOX IMVI = system: LOX IMVI
NCI/ADR-RES = system: NCI/ADR-RES
MDA-MB-435 = system: MDA-MB-435
HL-60 = system: HL-60
UACC-257 = system: UACC-257
EKVX = system: EKVX
SF-295 = system: SF-295
COLO 205 = system: COLO 205
OVCAR-8 = system: OVCAR-8
SK-MEL-5 = system: SK-MEL-5
IGROV-1 = system: IGROV-1
K562 = system: K562
MCF7 = system: MCF7
SK-OV-3 = system: SK-OV-3
SF-539 = system: SF-539
SK-MEL-2 = system: SK-MEL-2
TK-10 = system: TK-10
Malme-3M = system: Malme-3M
HCC 2998 = system: HCC 2998
UACC-62 = system: UACC-62
SNB-75 = system: SNB-75
NCI-H226 = system: NCI-H226
OVCAR-3 = system: OVCAR-3
MDA-MB-231 = system: MDA-MB-231

## CCOC(=O)c1c(-c2ccc(O)c(OC)c2)c(C#N)c(=S)n(C2OC(COC(C)=O)C(OC(C)=O)C(OC(C)=O)C2OC(C)=O)c1-c1ccccc1 (stereo not drawn)
SW-620
  GI50: > 100 µM (inactive)
KM12
  GI50: 45.4 µM (inactive) and 50.8 µM (inactive)
HOP-92
  GI50: 24.9 µM (inactive)
HOP-62
  GI50: 61.4 µM (inactive)
RXF 393
  GI50: > 100 µM (inactive) and 58.9 µM (inactive)
CCRF-CEM
  GI50: 58.7 µM (inactive) and 45.4 µM (inactive)
NCI-H23
  GI50: 43.7 µM (inactive) and 61.1 µM (inactive)
SK-MEL-28
  GI50: 58.2 µM (inactive)
NCI-H460
  GI50: > 100 µM (inactive) and 70.1 µM (inactive)
U-251
  GI50: > 100 µM (inactive)
CAKI-1
  GI50: 65.2 µM (inactive)
HCT-116
  GI50: 47.9 µM (inactive) and 63.2 µM (inactive)
786-0
  GI50: 71.6 µM (inactive) and 52.5 µM (inactive)
HCT-15
  GI50: 98.2 µM
OVCAR-5
  GI50: > 100 µM (inactive)
DU-145
  GI50: 38.5 µM (inactive) and 35.2 µM (inactive)
BT-549
  GI50: 57.7 µM (inactive) and 32.6 µM (inactive)
NCI-H522
  GI50: 18.8 µM (inactive) and 19.2 µM (inactive)
ACHN
  GI50: 48.8 µM (inactive) and 61.8 µM (inactive)
SN12C
  GI50: > 100 µM (inactive) and 88.9 µM (inactive)
SR
  GI50: > 100 µM (inactive)
MDA-N
  GI50: 61.7 µM (inactive) and 39.4 µM (inactive)
SF-268
  GI50: > 100 µM (inactive) and 70.6 µM (inactive)
UO-31
  GI50: 43.7 µM (inactive) and 62.1 µM (inactive)
SNB-19
  GI50: > 100 µM (inactive)
Hs-578T
  GI50: > 100 µM (inactive)
OVCAR-4
  GI50: > 100 µM (inactive)
A549
  GI50: > 100 µM (inactive) and 94.4 µM (inactive)
PC-3
  GI50: 43.8 µM (inactive) and 31.4 µM (inactive)
MOLT-4
  GI50: 48.9 µM (inactive) and 31.9 µM (inactive)
RPMI-8226
  GI50: 72.9 µM (inactive)
HT-29
  GI50: 59.7 µM (inactive) and 32.1 µM (inactive)
A498
  GI50: > 100 µM (inactive)
M14
  GI50: 82.4 µM (inactive)
LOX IMVI
  GI50: 35.4 µM (inactive) and 48 µM (inactive)
NCI/ADR-RES
  GI50: 72.1 µM (inactive)
MDA-MB-435
  GI50: 56.2 µM (inactive) and 71 µM (inactive)
HL-60
  GI50: > 100 µM (inactive)
UACC-257
  GI50: > 100 µM (inactive) and 62.2 µM (inactive)
EKVX
  GI50: 96.8 µM (inactive) and 75.5 µM (inactive)
SF-295
  GI50: > 100 µM (inactive)
COLO 205
  GI50: 43.3 µM (inactive) and 30.3 µM (inactive)

## Nc1nc(Cl)cc(NCC2(CO)CC(CCCCc3ccccc3)C2)n1 (stereo not drawn)
OVCAR-8
  GI50: 27.2 µM (inactive)
SW-620
  GI50: 78.7 µM (inactive)
KM12
  GI50: 65 µM (inactive)
HOP-92
  GI50: 96.4 µM (inactive)
HOP-62
  GI50: 99.8 µM (inactive)
RXF 393
  GI50: 34.6 µM (inactive)
CCRF-CEM
  GI50: 87.5 nM (active)
NCI-H23
  GI50: 21.8 µM (inactive)
SK-MEL-28
  GI50: > 100 µM (inactive)
NCI-H460
  GI50: 40.8 µM (inactive)
U-251
  GI50: > 100 µM (inactive)
CAKI-1
  GI50: 82.8 µM (inactive)
HCT-116
  GI50: 29 µM (inactive)
786-0
  GI50: 42.3 µM (inactive)
HCT-15
  GI50: 34.8 µM
OVCAR-5
  GI50: > 100 µM (inactive)
DU-145
  GI50: > 100 µM (inactive)
SK-MEL-5
  GI50: 3.86 µM (inactive)
BT-549
  GI50: > 100 µM (inactive)
NCI-H522
  GI50: 66.7 µM (inactive)
ACHN
  GI50: > 100 µM (inactive)
SN12C
  GI50: > 100 µM (inactive)
IGROV-1
  GI50: > 100 µM (inactive)
K562
  GI50: 2.23 µM (inactive)
SR
  GI50: 19.2 µM (inactive)
MCF7
  GI50: 7.55 µM (inactive)
MDA-N
  GI50: 89.1 µM (inactive)
SF-268
  GI50: > 100 µM (inactive)
SK-OV-3
  GI50: > 100 µM (inactive)
SF-539
  GI50: > 100 µM (inactive)
SK-MEL-2
  GI50: > 100 µM (inactive)
SNB-19
  GI50: > 100 µM (inactive)
Hs-578T
  GI50: 70.6 µM (inactive)
TK-10
  GI50: > 100 µM (inactive)
Malme-3M
  GI50: 16.3 µM (inactive)
HCC 2998
  GI50: 37.7 µM (inactive)
OVCAR-4
  GI50: > 100 µM (inactive)
A549
  GI50: 16.1 µM (inactive)
UACC-62
  GI50: > 100 µM (inactive)
PC-3
  GI50: 46.1 µM (inactive)
MOLT-4
  GI50: 3.36 µM (inactive)
RPMI-8226
  GI50: 10.9 µM (inactive)
HT-29
  GI50: 13.7 µM (inactive)
A498
  GI50: 18.1 µM (inactive)
M14
  GI50: 67.6 µM (inactive)
SNB-75
  GI50: 81.3 µM (inactive)
LOX IMVI
  GI50: 5.73 µM (inactive)
MDA-MB-435
  GI50: 42.9 µM (inactive)
NCI-H226
  GI50: > 100 µM (inactive)
HL-60
  GI50: 6.55 µM (inactive)
UACC-257
  GI50: 61.9 µM (inactive)
OVCAR-3
  GI50: > 100 µM (inactive)
EKVX
  GI50: > 100 µM (inactive)
MDA-MB-231
  GI50: 30.6 µM (inactive)
SF-295
  GI50: 18.2 µM (inactive)
COLO 205
  GI50: 27.9 µM (inactive)
